Experiment [1] is described as follows: Affinity of paramagnetic complex towards substrate by PRE method. Format: binding. The source says: (§1) Since the relaxivity of the two paramagnetic species involved in the equilibrium, that bound to the substrate molecule and that unbound, are different, the well-established Proton Relaxation Enhancement (PRE) method (Aime S, Fasano M, Terreno E, Botta M in The Chemistry of Contrast Agents in Medical Magnetic Resonance Imaging, Merbach A E, Tóth E (eds), Wiley & Sons: Chichester, 2001, 203-209) may be conveniently used for estimating the affinity of the paramagnetic complex towards the substrate molecule.
(§2) The KA values obtained for the adducts disclosed in the following are measured according to this PRE method.

Experiment [2] can be described thus: Affinity of paramagnetic complex towards substrate by Proton Relaxation Enhancement (PRE) method. Type of experiment: binding. To be noted: Lactate; pH 7 and 25° C.
Excerpt: as §1, §2
By adding lactate to an aqueous solution of GdDO3A the following equilibrium takes place: GdDO3A(H2O)2+Lactate ? GdDO3A(Lactate)+2H2O
Since the relaxivity of the two Gd(III) species involved in the equilibrium are different (higher for GdDO3A(H2O)2), the well-consolidated Proton Relaxation Enhancement (PRE) method (Aime S, Fasano M, Terreno E, Botta M in The Chemistry of Contrast Agents in Medical Magnetic Resonance Imaging, Merbach A E, Tóth E (eds), Wiley & Sons: Chichester, 2001, 203-209) may be conveniently used for estimating the affinity of the GdDO3A complex towards Lactate.

The results in this text go back to patent US7608249B2, “Enhanced substrate imaging by reversible binding to a paramagnetic complex” (Bracco Imaging S.p.A., priority 2001, dated 2009).

On to “10-[(3-carboxyphenyl)methyl]-1,4,7,10-tetraazaciclododecane-1,4,7-triacetic acid gadolinium complex [Gd-3]”, for which the KA in experiment [1] (aspartate, 298 K and pH 7) was 120 M⁻¹; in experiment [1] (oxalate, 298K and pH 7), greater than 50000 M⁻¹.

Turning to `O=C([O-])CN1CCNCCN(CC(=O)[O-])CCN(CC(=O)[O-])CC1.[Gd+3]` [GdDO3A], the KA came to 40 M⁻¹ in experiment [1] (citrate, pH 7 and 25° C.); 150 M⁻¹ in experiment [2]. The binding strength in experiment [1] (inorganic phosphate, pH 7.4 and 25° C.) is 50 M⁻¹.
